Experimental data: patent US11999732B2, “P2X3 receptor antagonists” (RECORDATI INDUSTRIA CHIMICA E FARMACEUTICA SPA, priority 2018, dated 2024)
Read-outs that look alike come from different tables or passages of the source. One block for each molecule: values may come before it.

Target: T1, human P2X3 receptor (Homo sapiens, UniProt P56373)
T1 construct: expressed in transfected cells; host or cells: CHO-K1
T1 sequence (P56373 1-397): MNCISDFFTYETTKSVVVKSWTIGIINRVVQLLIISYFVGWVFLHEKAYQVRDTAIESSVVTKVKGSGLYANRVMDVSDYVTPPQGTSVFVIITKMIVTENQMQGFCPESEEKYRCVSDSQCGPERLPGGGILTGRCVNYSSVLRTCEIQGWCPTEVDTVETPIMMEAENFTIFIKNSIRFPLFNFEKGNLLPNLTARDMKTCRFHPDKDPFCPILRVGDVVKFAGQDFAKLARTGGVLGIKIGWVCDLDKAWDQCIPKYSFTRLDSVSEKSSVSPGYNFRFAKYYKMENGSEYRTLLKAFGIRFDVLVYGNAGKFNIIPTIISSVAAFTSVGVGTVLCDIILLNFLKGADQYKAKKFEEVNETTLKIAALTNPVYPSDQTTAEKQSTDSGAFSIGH
Assay: Calcium luminescence (photoprotein) assay in CHO-K1 cells co-expressing human P2X3 receptor, α,β-Met-ATP stimulation, FLEXSTATION readout
Type: cell-based
Conditions: human P2X3 receptor antagonist activity, CHO-K1 cells, α,β-Met-ATP, read-out: h-P2X3 IC50
Method in brief: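 CHO-K1 cells co-expressing human P2X3 and a Ca2+-sensitive photoprotein, loaded with coelenterazine in Tyrode's buffer (pH 7.4) for 4 h at 37 °C. Compounds injected 4 min before α,β-Met-ATP stimulation; luminescence recorded, IC50 and pseudo-Hill slope from nonlinear regression of inhibition curves.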

IC50 (Table 8): 1.81 µM
Structure (SMILES): COc1ccc(Cc2nn3c(C(C)C)nnc3c3ncc(N4CCOCC4)cc23)cc1 [Example 122, 6-(4-methoxybenzyl)-8-(morpholin-4-yl)-3-(propan-2-yl)pyrido[2,3-d][1,2,4]triazolo[4,3-b]pyridazine]

IC50 (Table 9): 1.05 µM
Structure (SMILES): CCC1CCN2C(=O)N(Cc3ccc(Cl)cc3)c3cc(N4CCOCC4)cnc3C2=N1 (stereo not drawn) [Example 154, 5-(4-chlorobenzyl)-10-ethyl-3-(morpholin-4-yl)-5,8,9,10-tetrahydro-6H-pyrido[2,3-e]pyrimido[1,2-c]pyrimidin-6-one]

IC50 (Table 9): 0.7 µM
Structure (SMILES): CC(C)c1nnc2c3ncc(N4CCC(O)CC4)cc3n(Cc3ccc(Cl)cc3)c(=O)n12 [Example 171, 6-(4-chlorobenzyl)-8-(4-hydroxypiperidin-1-yl)-3-(propan-2-yl)pyrido[2,3-e][1,2,4]triazolo[4,3-c]pyrimidin-5(6H)-one]

IC50 (Table 9): 0.0785 µM
Structure (SMILES): COc1ccc(Cn2c(=O)n3c(C4(C)CC4)nnc3c3ncc(N4CCOCC4)cc32)cc1 [Example 174, 6-(4-methoxybenzyl)-3-(1-methylcyclopropyl)-8-(morpholin-4-yl)pyrido[2,3-e][1,2,4]triazolo[4,3-c]pyrimidin-5(6H)-one]

IC50 (Table 8): 3.34 µM
Structure (SMILES): CC(C)(C)OC(=O)NC1CCN(c2cnc3c(c2)c(Cc2ccc(Cl)cc2)nn2c(C(C)(C)C)nnc32)CC1 [Example 138, tert-butyl n-[1-[5-tert-butyl-8-(4-chlorobenzyl)-3,4,6,7,13-pentazatricyclo[7.4.0.02,6]trideca-1(9),2,4,7,10,12-hexaen-11-yl]-4-piperidyl]carbamate]

IC50 (Table 9): 2.17 µM
Structure (SMILES): CCC1CCN=C2c3ncc(N4CCOCC4)cc3N(Cc3ccc(Cl)cc3)C(=O)N21 (stereo not drawn) [Example 155, 5-(4-chlorobenzyl)-8-ethyl-3-(morpholin-4-yl)-5,8,9,10-tetrahydro-6H-pyrido[2,3-e]pyrimido[1,2-c]pyrimidin-6-one]

More lines, now with the values behind:

Structure (SMILES): COCCC1CN2C(=O)N(Cc3ccc(OC)cc3)c3cc(N4CCOCC4)cnc3C2=N1 (stereo not drawn) [Example 65, 6-(4-methoxybenzyl)-2-(2-methoxyethyl)-8-(morpholin-4-yl)-2,6-dihydroimidazo[1,2-c]pyrido[2,3-e]pyrimidin-5(3H)-one]
IC50 (Table 6): 1.79 µM

Structure (SMILES): COc1cc(Cn2c(=O)n3c(C)c(C(C)C)nc3c3ncc(N4CCC(OC)CC4)cc32)cc(OC)c1 [Example 87, 6-(3,5-dimethoxybenzyl)-8-(4-methoxypiperidin-1-yl)-3-methyl-2-(propan-2-yl)imidazo[1,2-c]pyrido[2,3-e]pyrimidin-5(6H)-one]
IC50 (Table 7): 0.444 µM

Structure (SMILES): CC(C)c1nnc2c3ncc(N4CCOCC4)cc3n(Cc3ccc(Cl)cc3)c(=O)n12 [Example 99, 6-(4-chlorobenzyl)-8-(morpholin-4-yl)-3-(propan-2-yl)pyrido[2,3-e][1,2,4]triazolo[4,3-c]pyrimidin-5(6H)-one]
IC50 (Table 7): 0.121 µM

Structure (SMILES): CC(C)Cc1nnc2c3ncc(N4CCOCC4)cc3n(Cc3ccc(Cl)cc3)c(=O)n12 [Example 108, 6-(4-chlorobenzyl)-3-(2-methylpropyl)-8-(morpholin-4-yl)pyrido[2,3-e][1,2,4]triazolo[4,3-c]pyrimidin-5(6H)-one]
IC50 (Table 7): 0.175 µM

Structure (SMILES): COCC1CN(c2cnc3c(c2)N(Cc2ccc(Cl)cc2)C(=O)N2CC(C(C)C)N=C32)C1 (stereo not drawn) [Example 17, 6-(4-chlorobenzyl)-8-[3-(methoxymethyl)azetidin-1-yl]-2-(propan-2-y1)-2,6-dihydroimidazo[1,2-c]pyrido[2,3-e]pyrimidin-5(3H)-one]
IC50 (Table 6): 0.69 µM

Structure (SMILES): COc1ccc(Cn2c(=O)n3c(C)c(C(C)C)nc3c3ncc(N4CCOCC4)cc32)cc1 [Example 89, 6-(4-methoxybenzyl)-3-methyl-8-(morpholin-4-yl)-2-(propan-2-yl)imidazo[1,2-c]pyrido[2,3-e]pyrimidin-5(6H)-one]
IC50 (Table 7): 0.575 µM

Structure (SMILES): COc1ccc(CN2C(=O)N3CC(C4CCC4)N=C3c3ncc(N4CCOCC4)cc32)cc1 (stereo not drawn) [Example 33, 2-cyclobutyl-6-(4-methoxybenzyl)-8-(morpholin-4-yl)-2,6-dihydroimidazo[1,2-c]pyrido[2,3-e]pyrimidin-5(3H)-one]
IC50 (Table 6): 0.219 µM

Structure (SMILES): CC(C)CC1CN2C(=O)N(Cc3ccc(Cl)cc3)c3cc(N4CCOCC4)cnc3C2=N1 (stereo not drawn) [Example 30, 6-(4-chlorobenzyl)-2-(2-methylpropyl)-8-(morpholin-4-y1)-2,6-dihydroimidazo[1,2-c]pyrido[2,3-e]pyrimidin-5(3H)-one]
IC50 (Table 6): 0.35 µM

Structure (SMILES): COCC1CN(c2cnc3c(c2)n(Cc2ccc(OC)cc2)c(=O)n2c(C)c(C(C)C)nc32)C1 [Example 92, 6-(4-methoxybenzyl)-8-[3-(methoxymethyl)azetidin-1-y1]-3-methyl-2-(propan-2-yl)imidazo[1,2-c]pyrido[2,3-e]pyrimidin-5(6H)-one]
IC50 (Table 7): 0.801 µM

Structure (SMILES): COc1cc(Cn2c(=O)n3c(C)c(C(C)C)nc3c3ncc(N4CCOCC4)cc32)cc(OC)c1 [Example 79, 6-(3,5-dimethoxybenzyl)-3-methyl-8-(morpholin-4-yl)-2-(propan-2-yl)imidazo[1,2-c]pyrido[2,3-e]pyrimidin-5(6H)-one]
IC50 (Table 7): 0.0537 µM

Structure (SMILES): COc1cc(CN2C(=O)N3CC(c4ccccc4)N=C3c3ncc(N4CCOCC4)cc32)cc(OC)c1 (stereo not drawn) [Example 46, 6-(3,5-dimethoxybenzyl)-8-(morpholin-4-yl)-2-phenyl-2,6-dihydroimidazo[1,2-c]pyrido[2,3-e]pyrimidin-5(3H)-one]
IC50 (Table 6): 0.127 µM

Structure (SMILES): COCCNc1cnc2c(c1)c(Cc1cc(OC)cc(OC)c1)nn1c(CC(C)C)nnc21 [Example 118, 6-(3,5-dimethoxybenzyl)-n-(2-methoxyethyl)-3-(2-methylpropyl)pyrido[2,3-d][1,2,4]triazolo[4,3-b]pyridazin-8-amine]
IC50 (Table 8): 1.05 µM
